One may read the MIC as the lowest concentration found to suppress growth.

In brackets after ≈: the same amount, converted by molar mass.

The test concerns Mycobacterium tuberculosis. Put plainly: Antimycobacterial activity against Mycobacterium tuberculosis H37Rv. It counts as functional.
`Cc1ccc(-c2nnc(S)o2)cc1` displayed an MIC of 9.6 µg/mL (≈ 49.9 µM).

In turn, `COC(=O)c1c(NC(=O)c2c(F)c(F)c(F)c(F)c2F)sc2c1CCCCC2` came in with an MIC of 1 µg/mL (≈ 2.38 µM).

As to `Sc1nnc(-c2ccccc2Cl)o1`, the MIC worked out at 21.2 µg/mL (≈ 99.7 µM).

For the molecule `Sc1nnc(-c2ccc(Cl)cc2)o1`, the MIC turned out to be 5.3 µg/mL (≈ 24.9 µM).

As for `Fc1ccc(-c2nnc(S)o2)cc1`, the MIC was greater than 25 µg/mL.

`Sc1nnc(-c2ccccc2Br)o1` returned an MIC greater than 25 µg/mL.

`S=c1[nH]nc(C2CCCCC2)o1`: the minimal inhibitory concentration (MIC) was greater than 25 µg/mL.

For `Nc1ccsc1-c1nnc(S)o1`, the MIC was 21.3 µg/mL (≈ 107 µM).

Molecule `NC(=O)N1N=C(c2ccc3oc(N)nc3c2)CC1c1cccs1` (configuration not stated) had an MIC of 6.25 µg/mL (≈ 19.1 µM).

As for `O=[N+]([O-])c1ccc(-c2nnc(S)o2)cc1`, the lowest concentration to inhibit growth (MIC) was 3.1 µg/mL (≈ 13.9 µM).

In the case of `NC(=O)N1N=C(c2ccc3oc(S)nc3c2)CC1c1cccs1` (configuration not stated), the MIC was determined as 12.5 µg/mL (≈ 36.3 µM).

In turn, `CC(=O)N1N=C(c2ccc3oc(N)nc3c2)CC1c1cccs1` (configuration not stated) came in with an MIC of 6.25 µg/mL (≈ 19.1 µM).

Take `CC(=O)N1N=C(c2ccc3oc(NC(=O)c4ccccc4)nc3c2)CC1c1cccs1` (configuration not stated): the lowest concentration to inhibit growth (MIC) was 6.25 µg/mL (≈ 14.5 µM).

Molecule `CC(=O)N1N=C(c2ccc3oc(-c4ccccn4)nc3c2)CC1c1cccs1` (configuration not stated) had an MIC of 25 µg/mL (≈ 64.4 µM).

Turning to `COc1ccccc1-c1nc2cc(C3=NN(C(C)=O)C(c4cccs4)C3)ccc2o1` (configuration not stated), the MIC amounted to 25 µg/mL (≈ 59.9 µM).

On to `CC(=O)N1N=C(c2ccc3oc(S)nc3c2)CC1c1cccs1` (configuration not stated), for which the MIC was 6.25 µg/mL (≈ 18.2 µM).

With `COC(=O)c1c(NC(=O)c2ccc(C)cc2)sc2c1CCCCC2`, the MIC is greater than 20.2 µg/mL.

`Sc1nnc(-c2ccccc2I)o1` registered an MIC of 15.2 µg/mL (≈ 50 µM).

With `CCCC(=O)Nc1nc2cc(C3=NN(C(C)=O)C(c4cccs4)C3)ccc2o1` (configuration not stated), 12.5 µg/mL (≈ 31.5 µM) was the least that counted as inhibitory (MIC).

Molecule `CC(=O)Nc1nc2cc(C3=NN(C(C)=O)C(c4cccs4)C3)ccc2o1` (configuration not stated) gave an MIC of 25 µg/mL (≈ 67.9 µM).

`CC(=O)N1N=C(c2ccc3oc(-c4ccccc4Cl)nc3c2)CC1c1cccs1` (configuration not stated): 25 µg/mL (≈ 59.3 µM) was the least that counted as inhibitory (MIC).

`Sc1nnc(-c2ccc(-c3ccccc3)cc2)o1` returned an MIC greater than 25 µg/mL.

Regarding `COC(=O)c1c(NC(=O)c2ccccc2F)sc2c1CCCCC2`, the MIC was 20.2 µg/mL (≈ 58.1 µM).

In turn, `CC(=O)N1N=C(c2ccc3oc(C(=O)c4ccccc4)nc3c2)CC1c1cccs1` (configuration not stated) returned an MIC of 50 µg/mL (≈ 120 µM).

The molecule `CC(=O)N1N=C(c2ccc3oc(NC(=O)c4cccc(Cl)c4)nc3c2)CC1c1cccs1` (configuration not stated) gave an MIC of 12.5 µg/mL (≈ 26.9 µM).

The molecule `COc1cc(-c2nc3cc(C4=NN(C(C)=O)C(c5cccs5)C4)ccc3o2)cc(OC)c1OC` (configuration not stated) returned an MIC of 25 µg/mL (≈ 52.4 µM).

`Sc1nnc(-c2ccc(Br)cc2)o1` gave an MIC greater than 25 µg/mL.

On to `CC(=O)N1N=C(c2ccc3oc(-c4ccccc4)nc3c2)CC1c1cccs1` (configuration not stated), for which it took 25 µg/mL (≈ 64.5 µM) to inhibit growth (MIC).

For `Oc1cc(O)cc(-c2nnc(S)o2)c1`, 21 µg/mL (≈ 99.9 µM) was the least that counted as inhibitory (MIC).

Molecule `COc1cccc(-c2nc3cc(C4=NN(C(C)=O)C(c5cccs5)C4)ccc3o2)c1` (configuration not stated) displayed an MIC of 25 µg/mL (≈ 59.9 µM).

In turn, `O=[N+]([O-])c1ccc([N+](=O)[O-])c(-c2nnc(S)o2)c1` showed a minimum inhibitory concentration (MIC) of 6.7 µg/mL (≈ 25 µM).

Molecule `O=[N+]([O-])c1ccc(F)c(-c2nnc(S)o2)c1` came in with an MIC greater than 25 µg/mL.

Take `FC(F)(F)c1ccc(-c2nnc(S)o2)cc1`: the MIC is greater than 25 µg/mL.

On to `Oc1ccc(-c2nnc(S)[nH]2)cc1O`, for which the MIC was 10.5 µg/mL (≈ 50.2 µM).

Regarding `NOC(=O)c1c(NC(=O)c2c(F)c(F)c(F)c(F)c2F)sc2c1CCCCC2`, inhibition of growth (MIC) required 15.3 µg/mL (≈ 36.4 µM).

Regarding `COc1ccc(-c2nnc(S)o2)cc1`, the MIC came out at 20.8 µg/mL (≈ 99.9 µM).

For `CC(=O)N1N=C(c2ccc3oc(-c4ccncc4)nc3c2)CC1c1cccs1` (configuration not stated), the MIC stood at 25 µg/mL (≈ 64.4 µM).

With `CC(=O)N1N=C(c2ccc3oc(NC(=O)c4ccccc4Cl)nc3c2)CC1c1cccs1` (configuration not stated), the lowest concentration to inhibit growth (MIC) was 25 µg/mL (≈ 53.8 µM).

Consider `COc1ccc(-c2nc3cc(C4=NN(C(C)=O)C(c5cccs5)C4)ccc3o2)cc1` (configuration not stated), for which the MIC is 12.5 µg/mL (≈ 29.9 µM).

For `CC(=O)N1N=C(c2ccc3oc(-c4cccnc4)nc3c2)CC1c1cccs1` (configuration not stated), the MIC was found to be 25 µg/mL (≈ 64.4 µM).

Take `CC(=O)N1N=C(c2ccc3oc(NC(=O)C(C)C)nc3c2)CC1c1cccs1` (configuration not stated): inhibition of growth (MIC) required 25 µg/mL (≈ 63.1 µM).

In turn, `COc1ccccc1C(=O)Nc1nc2cc(C3=NN(C(C)=O)C(c4cccs4)C3)ccc2o1` (configuration not stated) came in with an MIC of 25 µg/mL (≈ 54.3 µM).

Values taken from ChEMBL document CHEMBL5244273, “Tuberculosis: An Overview of the Immunogenic Response, Disease Progression, and Medicinal Chemistry Efforts in the Last Decade toward the Development of Potential Drugs for Extensively Drug-Resistant Tuberculosis Strains” (J Med Chem, 2021).
